Laboratory results taken from patent US10047096B2, “Substituted pyridobenzodiazepinone-derivatives and use thereof” (Bayer Pharma Aktiengesellschaft, priority 2014, dated 2018).

What was measured:
human PDGFRβ = human PDGFRβ (Homo sapiens (Human), UniProt P09619); assay: PDGFRβ kinase assay (PDGFRβ-HTRF); assay type: biochemical; conditions: 10 μM ATP; some mean values from multiple determinations
Procedure, shortened: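 GST-fused human PDGFRβ fragment (R561-L1106) from Sf9 cells was preincubated 15 min with compound in 50 mM HEPES pH 7.5, 10 mM MgCl2, 2.5 mM DTT, 0.01% Triton X-100; substrate was biotinylated poly-Glu,Tyr (4:1).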

[1] = target: pPDGFRβ in normal human dermal fibroblasts (NHDF) (Homo sapiens (Human), UniProt P09619); assay: Cellular pPDGFRβ inhibition assay; assay type: cell-based; conditions: NHDF stimulated with 50 ng/ml PDGF-BB, 1 h
Chain of pPDGFRβ in normal human dermal fibroblasts (NHDF) (P09619 33-1106): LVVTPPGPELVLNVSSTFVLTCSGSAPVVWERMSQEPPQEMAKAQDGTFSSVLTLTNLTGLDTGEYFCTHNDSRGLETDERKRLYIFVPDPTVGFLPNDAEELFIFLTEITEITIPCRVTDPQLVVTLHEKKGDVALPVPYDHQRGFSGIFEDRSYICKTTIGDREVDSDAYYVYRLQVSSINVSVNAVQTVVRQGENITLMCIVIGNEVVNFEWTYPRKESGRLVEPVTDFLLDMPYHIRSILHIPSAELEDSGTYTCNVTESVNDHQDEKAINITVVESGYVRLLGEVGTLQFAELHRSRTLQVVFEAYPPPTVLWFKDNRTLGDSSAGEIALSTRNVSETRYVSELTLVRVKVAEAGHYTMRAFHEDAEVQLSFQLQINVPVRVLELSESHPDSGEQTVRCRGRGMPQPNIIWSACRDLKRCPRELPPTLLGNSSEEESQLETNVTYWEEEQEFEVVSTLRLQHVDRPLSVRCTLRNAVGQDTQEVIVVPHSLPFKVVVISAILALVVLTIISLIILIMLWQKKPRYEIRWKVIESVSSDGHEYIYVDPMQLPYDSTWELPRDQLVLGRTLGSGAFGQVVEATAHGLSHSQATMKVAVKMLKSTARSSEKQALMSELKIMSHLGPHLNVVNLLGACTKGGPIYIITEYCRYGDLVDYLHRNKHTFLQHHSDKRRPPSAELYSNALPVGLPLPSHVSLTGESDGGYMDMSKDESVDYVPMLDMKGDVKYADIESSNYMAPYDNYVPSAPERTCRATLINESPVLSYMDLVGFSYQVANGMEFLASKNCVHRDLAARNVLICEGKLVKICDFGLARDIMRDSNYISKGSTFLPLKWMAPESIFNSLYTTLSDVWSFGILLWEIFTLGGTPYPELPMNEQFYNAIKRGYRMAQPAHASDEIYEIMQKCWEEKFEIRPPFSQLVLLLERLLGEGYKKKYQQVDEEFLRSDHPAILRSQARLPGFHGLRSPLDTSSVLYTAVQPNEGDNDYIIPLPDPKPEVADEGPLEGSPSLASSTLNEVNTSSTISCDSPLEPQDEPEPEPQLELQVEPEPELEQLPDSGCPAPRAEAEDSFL
Protocol: Thereafter, 50 ng/ml recombinant human PDGF-BB (R&D Systems, Cat. No. 220-BB-050) and a dilution series of the test substances to be examined in DMSO were added to the cells. The total volume per well was 100 μl. After incubation under the abovementioned conditions for one hour, the Opti-MEM® I Reduced Serum Medium was tapped out and discarded. Subsequently, the lysis buffer [Phospho PDGFRβ (Tyr751) Assay Whole Cell Lysate Kit, MSD, Cat. No. K150DVD-2] was made up according to the manufacturer's instructions and 70 μl of this mixture per well were added. The lysed cell samples were either stored at −20° C. or analysed immediately after the lysis in a Meso Scale SECTOR® Imager 2400 according to the abovementioned manufacturer's instructions. The measurement data were presented as percentage PDGFRβ stimulation compared to PDGF-BB-stimulated but substance-untreated cells. The IC50 values were calculated by employing the nonlinear regression (curve fit) function of GraphPad Prism 6 (La Jolla, Calif., USA).

Chain of human PDGFRβ (P09619 561-1106): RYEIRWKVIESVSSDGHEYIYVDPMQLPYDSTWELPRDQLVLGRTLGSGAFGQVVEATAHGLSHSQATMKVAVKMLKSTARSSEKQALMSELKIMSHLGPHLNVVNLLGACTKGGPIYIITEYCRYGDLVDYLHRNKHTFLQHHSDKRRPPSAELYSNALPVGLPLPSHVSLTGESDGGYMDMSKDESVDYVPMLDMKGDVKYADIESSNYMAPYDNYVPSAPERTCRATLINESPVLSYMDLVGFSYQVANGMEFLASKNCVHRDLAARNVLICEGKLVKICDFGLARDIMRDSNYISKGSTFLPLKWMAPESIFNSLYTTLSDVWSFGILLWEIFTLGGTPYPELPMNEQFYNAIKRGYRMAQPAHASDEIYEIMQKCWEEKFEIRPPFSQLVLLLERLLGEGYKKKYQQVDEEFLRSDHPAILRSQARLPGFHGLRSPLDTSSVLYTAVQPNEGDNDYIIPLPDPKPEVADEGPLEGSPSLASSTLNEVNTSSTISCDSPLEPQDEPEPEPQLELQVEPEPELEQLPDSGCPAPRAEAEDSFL

Structure (SMILES) | IC50 (human PDGFRβ) | IC50 [1]
Cc1cc(F)c(Nc2ccnc3c2C(=O)Nc2cc(CNC(CO)C(C)C)ccc2N3)cc1O (racemic) [Example 75, rac-4-[(2-Fluoro-5-hydroxy-4-methylphenyl)amino]-8-{[(1-hydroxy-3-methylbutan-2-yl)amino]methyl}-6,11-dihydro-5H-pyrido[2,3-b][1,5]benzodiazepin-5-one] | 0.826 nM | 43.9 nM
CCN(CC)Cc1ccc2c(c1)NC(=O)c1c(Nc3cc(O)c(C)cc3F)ccnc1N2 [Example 28, 8-[(Diethylamino)methyl]-4-[(2-fluoro-5-hydroxy-4-methylphenyl)amino]-6,11-dihydro-5H-pyrido[2,3-b][1,5]benzodiazepin-5-one] | 0.953 nM | 21.6 nM
CCOC(=O)Nc1ccc(Nc2ccnc3c2C(=O)Nc2cc(C#N)ccc2N3)cc1O [Example 4, Ethyl {4-[(8-cyano-5-oxo-6,11-dihydro-5H-pyrido[2,3-b][1,5]benzodiazepin-4-yl)amino]-2-hydroxyphenyl}carbamate] | 352 nM | –
CCCC1CCN(Cc2ccc3c(c2)NC(=O)c2c(Nc4cc(O)c(C)cc4F)ccnc2N3)CC1 [Example 54, 4-[(2-Fluoro-5-hydroxy-4-methylphenyl)amino]-8-[(4-propylpiperidin-1-yl)methyl]-6,11-dihydro-5H-pyrido[2,3-b][1,5]benzodiazepin-5-one] | 6.51 nM | –
Cc1ccc(O)cc1Nc1ccnc2c1C(=O)Nc1cc(CN3CCN(C)CC3)ccc1N2 [Example 43, 4-[(5-Hydroxy-2-methylphenyl)amino]-8-[(4-methylpiperazin-1-yl)methyl]-6,11-dihydro-5H-pyrido[2,3-b][1,5]benzodiazepin-5-one] | 2.3 nM | –
Cc1ccc(O)cc1Nc1ccnc2c1C(=O)Nc1cc(CNCC(C)(C)C)ccc1N2 [Example 142] | 2.11 nM | –
Cc1cc(F)c(Nc2ccnc3c2C(=O)Nc2cc(CN4CC(=O)N(C(C)C)C(C)(C)C4)ccc2N3)cc1O [Example 196, 4-[(2-Fluoro-5-hydroxy-4-methylphenyl)amino]-8-[(4-isopropyl-3,3-dimethyl-5-oxopiperazin-1-yl)methyl]-6,11-dihydro-5H-pyrido[2,3-b][1,5]benzodiazepin-5-one] | 9.38 nM | –
CCN(CCCO)Cc1ccc2c(c1)NC(=O)c1c(Nc3cc(O)c(C)cc3F)ccnc1N2 [Example 222, 8-{[Ethyl(3-hydroxypropyl)amino]methyl}-4-[(2-fluoro-5-hydroxy-4-methylphenyl)amino]-6,11-dihydro-5H-pyrido[2,3-b][1,5]benzodiazepin-5-one] | 1.01 nM | –
Cc1ccc(O)cc1Nc1ccnc2c1C(=O)Nc1cc(CNCC3CCC(=O)N3C)ccc1N2 (stereo not drawn) [Example 137] | 1.68 nM | –
Cc1cc(F)c(Nc2ccnc3c2C(=O)Nc2cc(CN4CCC(O)C(C)(C)C4)ccc2N3)cc1O (racemic) [Example 166, rac-4-[(2-Fluoro-5-hydroxy-4-methylphenyl)amino]-8-[(4-hydroxy-3,3-dimethylpiperidin-1-yl)methyl]-6,11-dihydro-5H-pyrido[2,3-b][1,5]benzodiazepin-5-one] | 5.02 nM | –
Cc1ccc(O)cc1Nc1ccnc2c1C(=O)Nc1cc(CNCCn3ccnn3)ccc1N2 [Example 97] | 2.45 nM | –
Cc1ccc(O)cc1Nc1ccnc2c1C(=O)Nc1cc(CNc3ccccc3)ccc1N2 [Example 26, 8-Anilinomethyl-4-[(5-hydroxy-2-methylphenyl)amino]-6,11-dihydro-5H-pyrido[2,3-b][1,5]benzodiazepin-5-one] | 60.3 nM | –
COc1cccc(CNCc2ccc3c(c2)NC(=O)c2c(Nc4cc(O)ccc4C)ccnc2N3)c1 [Example 96] | 2.1 nM | –
Cc1ccc(O)cc1Nc1ccnc2c1C(=O)Nc1cc(CNCc3ccccc3)ccc1N2 [Example 145] | 5.82 nM | –
Cc1ccc(O)cc1Nc1ccnc2c1C(=O)Nc1cc(CNCC(F)(F)F)ccc1N2 [Example 14, 4-[(5-Hydroxy-2-methylphenyl)amino]-8-{[(2,2,2-trifluoroethyl)amino]methyl}-6,11-dihydro-5H-pyrido[2,3-b][1,5]benzodiazepin-5-one] | 9.14 nM | –

Now from value to molecule:

IC50 (human PDGFRβ) | IC50 [1] | Structure (SMILES)
1.15 nM | 22.1 nM | CCN(Cc1ccc2c(c1)NC(=O)c1c(Nc3cc(O)c(C)cc3F)ccnc1N2)C(C)C [Example 51, 8-{[Ethyl(isopropyl)amino]methyl}-4-[(2-fluoro-5-hydroxy-4-methylphenyl)amino]-6,11-dihydro-5H-pyrido[2,3-b][1,5]benzodiazepin-5-one]
1.58 nM | 11.3 nM | Cc1cc(F)c(Nc2ccnc3c2C(=O)Nc2cc(CN[C@H]4CC[C@H](O)CC4)ccc2N3)cc1O [Example 76, 4-[(2-Fluoro-5-hydroxy-4-methylphenyl)amino]-8-{[(trans-4-hydroxycyclohexyl)amino]methyl}-6,11-dihydro-5H-pyrido[2,3-b][1,5]benzodiazepin-5-one]
1.25 nM | 106 nM | CCN(CC)Cc1ccc2c(c1)NC(=O)c1c(Nc3cc(O)c(Cl)cc3F)ccnc1N2 [Example 174, 4-[(4-Chloro-2-fluoro-5-hydroxyphenyl)amino]-8-[(diethylamino)methyl]-6,11-dihydro-5H-pyrido[2,3-b][1,5]benzodiazepin-5-one]
6.38 nM | 554 nM | Cc1cc(F)c(Nc2ccnc3c2C(=O)Nc2cc(CN4CCN(CC(F)F)CC4)ccc2N3)cc1O [Example 227, 8-{[4-(2,2-Difluoroethyl)piperazin-1-yl]methyl}-4-[(2-fluoro-5-hydroxy-4-methylphenyl)amino]-6,11-dihydro-5H-pyrido[2,3-b][1,5]benzodiazepin-5-one]
0.905 nM | 60.7 nM | CCN(CCOC)Cc1ccc2c(c1)NC(=O)c1c(Nc3cc(O)c(C)cc3F)ccnc1N2 [Example 55, 8-{[Ethyl(2-methoxyethyl)amino]methyl}-4-[(2-fluoro-5-hydroxy-4-methylphenyl)amino]-6,11-dihydro-5H-pyrido[2,3-b][1,5]benzodiazepin-5-one]
0.487 nM | 41.1 nM | CCN(C)Cc1ccc2c(c1)NC(=O)c1c(Nc3cc(O)c(C)cc3F)ccnc1N2 [Example 49, 8-{[Ethyl(methyl)amino]methyl}-4-[(2-fluoro-5-hydroxy-4-methylphenyl)amino]-6,11-dihydro-5H-pyrido[2,3-b][1,5]benzodiazepin-5-one]
12.1 nM | 890 nM | CCN(CCO)C(=O)c1ccc2c(c1)NC(=O)c1c(Nc3cc(O)c(C)cc3F)ccnc1N2 [Example 162, N-Ethyl-4-[(2-fluoro-5-hydroxy-4-methylphenyl)amino]-N-(2-hydroxyethyl)-5-oxo-6,11-dihydro-5H-pyrido[2,3-b][1,5]benzodiazepine-8-carboxamide]
0.962 nM | 49.8 nM | Cc1cc(F)c(Nc2ccnc3c2C(=O)Nc2cc(CN(C)CCO)ccc2N3)cc1O [Example 198, 4-[(2-Fluoro-5-hydroxy-4-methylphenyl)amino]-8-{[(2-hydroxyethyl)(methyl)amino]methyl}-6,11-dihydro-5H-pyrido[2,3-b][1,5]benzodiazepin-5-one]
3.71 nM | – | Cc1ccc(O)cc1Nc1ccnc2c1C(=O)Nc1cc(CNC3CC3)ccc1N2 [Example 151]
1.31 nM | – | CCN(CCN(C)C)Cc1ccc2c(c1)NC(=O)c1c(Nc3cc(O)c(C)cc3F)ccnc1N2 [Example 199, 8-({[2-(Dimethylamino)ethyl](ethyl)amino}methyl)-4-[(2-fluoro-5-hydroxy-4-methylphenyl)amino]-6,11-dihydro-5H-pyrido[2,3-b][1,5]benzodiazepin-5-one]
3.31 nM | – | Cc1ccc(O)cc1Nc1ccnc2c1C(=O)Nc1cc(CNCCN(C)C)ccc1N2 [Example 156]
1.83 nM | – | Cc1ccc(O)cc1Nc1ccnc2c1C(=O)Nc1cc(CNCC(C)Cn3cccn3)ccc1N2 (stereo not drawn) [Example 114]
1.06 nM | – | Cc1cc(F)c(Nc2ccnc3c2C(=O)Nc2cc(CN4CCC(N)CC4)ccc2N3)cc1O [Example 218, 8-[(4-Aminopiperidin-1-yl)methyl]-4-[(2-fluoro-5-hydroxy-4-methylphenyl)amino]-6,11-dihydro-5H-pyrido[2,3-b][1,5]benzodiazepin-5-one]
1.48 nM | – | Cc1cc(F)c(Nc2ccnc3c2C(=O)Nc2cc(CN4CCC[C@H](N)C4)ccc2N3)cc1O [Example 219, 8-{[(3S)-3-Aminopiperidin-1-yl]methyl}-4-[(2-fluoro-5-hydroxy-4-methylphenyl)amino]-6,11-dihydro-5H-pyrido[2,3-b][1,5]benzodiazepin-5-one]
7.56 nM | – | Cc1ccc(O)cc1Nc1ccnc2c1C(=O)Nc1cc(CNCc3cccnc3)ccc1N2 [Example 146]
0.962 nM | – | CCCCN(CC)Cc1ccc2c(c1)NC(=O)c1c(Nc3cc(O)c(C)cc3F)ccnc1N2 [Example 53, 8-{[Butyl(ethyl)amino]methyl}-4-[(2-fluoro-5-hydroxy-4-methylphenyl)amino]-6,11-dihydro-5H-pyrido[2,3-b][1,5]benzodiazepin-5-one]
1.66 nM | – | Cc1cc(F)c(Nc2ccnc3c2C(=O)Nc2cc(CN4CCCC(C(N)=O)C4)ccc2N3)cc1O (racemic) [Example 57, rac-1-({4-[(2-Fluoro-5-hydroxy-4-methylphenyl)amino]-5-oxo-6,11-dihydro-5H-pyrido[2,3-b][1,5]benzodiazepin-8-yl}methyl)piperidine-3-carboxamide]
